The text below walks through data of PubChem BioAssay AID720726 (Broad Institute, 2013).

Assay [1] in a line: miR-122 upregulation in Huh7 hepatoma cells – cell-based, qRT-PCR, dry powder, orthogonal assay, dose response (AID 720726). Particulars: Huh7 miR-122 levels, qRT-PCR, 48 h; at 35 µM (top of the series). On the technique in general: Real-time PCR tracks product formation cycle by cycle.
Assay [2] concerns Huh7 miR-122 levels, qRT-PCR, 48 h. The description is as above.

SMILES strings stand for the structures. Calls of active or inactive are those of the source.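 The calls were made as follows: active = fitted dose curve rising to 40 percent activity within the top usable dose; inconclusive = flat curve between 30 and 70 percent, or poor fit; inactive = the rest, including signal moving the wrong way.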

In the case of `C[C@H]1CN([C@@H](C)CO)C(=O)c2cc(-c3ccc(C#N)cc3)cnc2O[C@H]1CN(C)C(=O)c1ccccc1`, in assay [1], the miR-122 fold change was 1.14 fold change (inactive).
Consider `CCCCN(CCCC)C(=O)CN(C)S(=O)(=O)c1ccc2c(c1)n(C)c(=O)c(=O)n2C`, for which, in assay [1], the miR-122 fold change is 0.906 fold change (inactive).
For `Cn1c(=O)c(=O)n(C)c2cc(S(=O)(=O)N3CCOCC3)ccc21`, the miR-122 fold change in assay [1] was 1.28 fold change (inactive).
The same measure, in the same setting: the result for `C[C@@H]1CN([C@@H](C)CO)S(=O)(=O)c2ccc(C#Cc3ccncc3)cc2O[C@H]1CN(C)C(=O)C1CCOCC1` reads 0.639 fold change (inactive); that for `Nc1ccc(Oc2ccc(Cl)cc2)cc1`, 0.496 fold change (inactive).
In the case of `CN(C)CCCOc1nn(Cc2ccccc2)c2ccccc12`, the miR-122 fold change in assay [1] was 1.5 fold change (inactive).
For `O=S(=O)(NCCc1ccncc1)c1ccccc1`, in assay [1], the miR-122 fold change is 1.01 fold change (inactive).
Still for that read-out and setting: with `C[C@H](CO)N1C[C@H](C)[C@@H](CN(C)C(=O)C2CCOCC2)Oc2cc(C#Cc3ccncc3)ccc2S1(=O)=O` the figure was 0.407 fold change (inactive); with `COCC(=O)N(C)C[C@@H]1Oc2ncc(-c3ccc(C#N)cc3)cc2C(=O)N([C@@H](C)CO)C[C@@H]1C`, 1.01 fold change (inactive); with `O=C(NCCC1=CCCCC1)c1ccc2c(c1)sc1nc(-c3ccccc3)cn12`, 0.828 fold change (inactive).
The same measure, in the same setting: the result for `C/C=C/c1cnc2c(c1)C(=O)N([C@@H](C)CO)C[C@H](C)[C@H](CN(C)S(=O)(=O)c1ccc(OC)cc1)O2` reads 1.05 fold change (inactive); that for `C[C@H]1CN([C@@H](C)CO)C(=O)c2cc(C#Cc3ccccc3F)cnc2O[C@H]1CN(C)C(=O)C1CCCCC1`, 0.569 fold change (inactive).
For the compound `Cc1cc(C(C)(C)C)cc(S(=O)(=O)N2CCOCC2)c1C`, the miR-122 fold change in assay [1] is 0.977 fold change (inactive).
For `CN1C(=O)c2cc(NC(=O)c3cccc(F)c3)ccc2OC[C@H]2O[C@@H](CC(=O)O)CC[C@@H]21`, in assay [1], the miR-122 fold change was 1.24 fold change (inactive).
Still for that read-out and setting: with `CCOC(=O)N1CCC(NC(=O)c2ccc3nc(N4CCC(C)CC4)sc3c2)CC1` the figure was 1 fold change (inactive).
Turning to `O=C(c1ccc(CNc2c(NC3CCCCC3)c(=O)c2=O)cc1)N1CCc2ccccc21`, the miR-122 fold change in assay [1] was 0.521 fold change (inactive).
As to `C[C@H]1CN([C@@H](C)CO)S(=O)(=O)c2ccc(C#Cc3ccncc3)cc2O[C@@H]1CN(C)C(=O)C1CCOCC1`, the miR-122 fold change in assay [1] is 0.399 fold change (inactive).
Same read-out and setting: with `CO[C@@H]1CN(C)C(=O)c2cc(NC(=O)c3cccc(Oc4ccccc4)c3)ccc2OC[C@H](C)NC[C@@H]1C` the figure was 0.113 fold change (inactive); with `C[C@H]1CN([C@@H](C)CO)C(=O)c2cc(-c3ccc(C#N)cc3)cnc2O[C@H]1CN(C)Cc1cncnc1`, 0.987 fold change (inactive); with `Cc1cccc(NC(=O)Nc2ccc3c(c2)C(=O)N(C)[C@@H]2CC[C@@H](CC(=O)NCc4ccccc4Cl)O[C@H]2CO3)c1`, 1.25 fold change (inactive).
For `CN(CC(=O)Nc1cccc(Cl)c1)S(=O)(=O)c1ccc2c(c1)n(C)c(=O)c(=O)n2C`, the miR-122 fold change in assay [1] was 1.27 fold change (inactive).
Turning to `CCCC#Cc1ccc2c(c1)O[C@H](CN(C)C(=O)COC)[C@H](C)CN([C@@H](C)CO)S2(=O)=O`, in assay [2], the AC40 was 23.9 µM.
As for `O=C(Nc1ccc(-c2nc3ccccc3o2)cc1)c1cc(-n2cnnc2)ccc1Cl`, the miR-122 fold change in assay [1] is 0.17 fold change (inactive).
As to `Nc1ccc(Oc2ccc(Br)cc2)cc1`, the miR-122 fold change in assay [1] was 0.505 fold change (inactive).
As for `COCC(=O)N(C)C[C@H]1Oc2cc(-c3ccccc3F)ccc2S(=O)(=O)N([C@H](C)CO)C[C@H]1C`, in assay [2], the AC40 was 18.9 µM.
Regarding `C[C@@H]1CN([C@@H](C)CO)S(=O)(=O)c2ccc(C#Cc3ccncc3)cc2O[C@@H]1CN(C)C(=O)C1CCOCC1`, in assay [1], the miR-122 fold change was 0.563 fold change (inactive).
Consider `COCC(=O)N(C)C[C@H]1Oc2cc(C#Cc3cccnc3)ccc2S(=O)(=O)N([C@@H](C)CO)C[C@H]1C`, for which the miR-122 fold change in assay [1] is 0.983 fold change (inactive).
Turning to `COCC(=O)N(C)C[C@H]1Oc2cc(C#Cc3cccnc3)ccc2S(=O)(=O)N([C@H](C)CO)C[C@H]1C`, the AC40 in assay [2] is 16.9 µM.
For `C[C@@H]1CN([C@H](C)CO)S(=O)(=O)c2ccc(C#Cc3ccncc3)cc2O[C@@H]1CN(C)C(=O)C1CCOCC1`, the miR-122 fold change in assay [1] was 0.732 fold change (inactive).
As for `C[C@H](CO)N1C[C@H](C)[C@H](CN(C)C(=O)C2CCOCC2)Oc2cc(C#Cc3ccncc3)ccc2S1(=O)=O`, the miR-122 fold change in assay [1] was 0.417 fold change (inactive).
For `CN1C(=O)c2cc(NC(=O)c3cccc(F)c3)ccc2OC[C@@H]2O[C@@H](CC(=O)O)CC[C@@H]21`, the miR-122 fold change in assay [1] was 0.94 fold change (inactive).
As for `CN1C(=O)c2cc(NC(=O)c3cccc(F)c3)ccc2OC[C@H]2O[C@@H](CC(=O)O)CC[C@H]21`, the miR-122 fold change in assay [1] is 1.38 fold change (inactive).
